# Laboratory results as given in ChEMBL document CHEMBL1201862, “PubChem BioAssay data set” (2004).
#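 48-hour exposure; five concentrations; linearly interpolated endpoints. GI50 = concentration required for 50% inhibition of growth.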 The source made the active and inactive calls. Cut-off read from the data, not from the text of the source: active = GI50 up to about 1.1 µM and inactive = higher.
# Assays:
# Assay in all cases: DTP human tumour cell line panel, 48 h
# [1] = system: MOLT-4
# [2] = system: SK-MEL-28
# [3] = system: NCI-H460
# [4] = system: DMS-273
# [5] = system: SK-MEL-2
# [6] = system: TK-10
# [7] = system: ACHN
# [8] = system: SF-268
# [9] = system: NCI-H522
# [10] = system: UACC-62
# [11] = system: A498
# [12] = system: HL-60
# [13] = system: CAKI-1
# [14] = system: OVCAR-4
# [15] = system: SF-295
# [16] = system: NCI-H226
# [17] = system: HT-29
# [18] = system: SN12C
# [19] = system: SR
# [20] = system: MDA-MB-435
SMILES,GI50 [1],GI50 [2],GI50 [3],GI50 [4],GI50 [5],GI50 [6],GI50 [7],GI50 [8],GI50 [9],GI50 [10],GI50 [11],GI50 [12],GI50 [13],GI50 [14],GI50 [15],GI50 [16],GI50 [17],GI50 [18],GI50 [19],GI50 [20]
CCOc1ccc(NC(=O)/C(Cc2nc3ccccc3nc2O)=N\O)cc1,> 100 µM (inactive),> 100 µM (inactive),> 100 µM (inactive),> 100 µM (inactive),> 100 µM (inactive),> 100 µM (inactive),> 100 µM (inactive),> 100 µM (inactive),> 100 µM (inactive),> 100 µM (inactive),> 100 µM (inactive),> 10 µM (inactive),> 100 µM (inactive),> 100 µM (inactive),–,–,–,–,–,–
O=C(CO[N+](=O)[O-])OCC(=O)c1ccccc1,> 100 µM (inactive),> 100 µM (inactive),> 100 µM (inactive),> 100 µM (inactive),> 100 µM (inactive),> 100 µM (inactive),> 100 µM (inactive),> 100 µM (inactive),> 100 µM (inactive),–,–,> 100 µM (inactive),> 100 µM (inactive),> 100 µM (inactive),> 100 µM (inactive),> 100 µM (inactive),> 100 µM (inactive),> 100 µM (inactive),> 100 µM (inactive),–
O=C1Nc2cc(Cl)ccc2N=CC1NC(=O)C(c1ccccc1)c1ccccc1Cl (stereo unspecified),> 100 µM (inactive),> 100 µM (inactive),57.9 µM (inactive),> 100 µM (inactive),> 100 µM (inactive),> 100 µM (inactive),> 100 µM (inactive),> 100 µM (inactive),> 100 µM (inactive),> 100 µM (inactive),> 100 µM (inactive),> 100 µM (inactive),> 100 µM (inactive),> 100 µM (inactive),> 100 µM (inactive),> 100 µM (inactive),> 100 µM (inactive),> 100 µM (inactive),–,–
CCOC(=O)C(=Cc1ccc(C(=O)OC)cc1)C(=O)OCC,2.61 µM (inactive),1.71 µM (inactive),21.1 µM (inactive),1.71 µM (inactive),1.75 µM (inactive),2.88 µM (inactive),1.69 µM (inactive),2.4 µM (inactive),1.33 µM (inactive),2.04 µM (inactive),13.2 µM (inactive),1.54 µM (inactive),1.67 µM (inactive),3.78 µM (inactive),5.26 µM (inactive),2.08 µM (inactive),3.21 µM (inactive),2.25 µM (inactive),–,–
CN1CCN(CCNc2ccc(CO)c3sc4ccccc4c(=O)c23)CC1,3.15 µM (inactive),15.5 µM (inactive),4.34 µM (inactive),3.21 µM (inactive),15 µM (inactive),18.3 µM (inactive),13.8 µM (inactive),11.6 µM (inactive),3.38 µM (inactive),13 µM (inactive),–,8.93 µM (inactive),11.9 µM (inactive),10.5 µM (inactive),5.93 µM (inactive),13.2 µM (inactive),4.15 µM (inactive),–,2.51 µM (inactive),–
CC(C)C(Nc1c2ccccc2[n+]([O-])c2ccccc12)C(=O)O (stereo unspecified),10 µM (inactive),43.1 µM (inactive),> 100 µM (inactive),61.9 µM (inactive),84.9 µM (inactive),> 100 µM (inactive),35.2 µM (inactive),55.3 µM (inactive),81.3 µM (inactive),57.3 µM (inactive),> 100 µM (inactive),26.2 µM (inactive),> 100 µM (inactive),65.8 µM (inactive),> 100 µM (inactive),35.6 µM (inactive),> 100 µM (inactive),61.1 µM (inactive),–,–
N/N=C(\CC1OC(=O)c2ccccc21)c1ccco1 (stereo unspecified),> 100 µM (inactive),> 100 µM (inactive),> 100 µM (inactive),> 100 µM (inactive),> 100 µM (inactive),> 100 µM (inactive),> 100 µM (inactive),> 100 µM (inactive),> 100 µM (inactive),> 100 µM (inactive),> 100 µM (inactive),> 100 µM (inactive),> 100 µM (inactive),> 100 µM (inactive),> 100 µM (inactive),> 100 µM (inactive),> 100 µM (inactive),–,–,–
O=c1ccn2n1Cc1ccccc1C2,> 100 µM (inactive),> 100 µM (inactive),> 100 µM (inactive),–,> 100 µM (inactive),> 100 µM (inactive),> 100 µM (inactive),> 100 µM (inactive),> 100 µM (inactive),> 100 µM (inactive),> 100 µM (inactive),> 100 µM (inactive),> 100 µM (inactive),> 100 µM (inactive),> 100 µM (inactive),> 100 µM (inactive),> 100 µM (inactive),> 100 µM (inactive),> 100 µM (inactive),> 100 µM (inactive)
COC(=O)c1cc(/C=C2\Cc3cc4c(cc3C2=O)CCC4)cc2c1CCC2,> 100 µM (inactive),> 100 µM (inactive),> 100 µM (inactive),–,> 100 µM (inactive),> 100 µM (inactive),> 100 µM (inactive),> 100 µM (inactive),> 100 µM (inactive),> 100 µM (inactive),> 100 µM (inactive),> 100 µM (inactive),> 100 µM (inactive),41.3 µM (inactive),> 100 µM (inactive),> 100 µM (inactive),> 100 µM (inactive),> 100 µM (inactive),> 100 µM (inactive),> 100 µM (inactive)
COc1ccc(-c2cc(Cc3cccs3)c(=O)[nH]n2)cc1,–,95.1 µM (inactive),–,> 100 µM (inactive),> 100 µM (inactive),> 100 µM (inactive),32.7 µM (inactive),> 100 µM (inactive),–,56.9 µM (inactive),–,–,–,–,> 100 µM (inactive),> 100 µM (inactive),96.2 µM (inactive),> 100 µM (inactive),–,–
CC(C)(CCC(C)(C)c1ccccc1)c1ccccc1,18.5 µM (inactive),20 µM (inactive),17.2 µM (inactive),–,16.6 µM (inactive),21.6 µM (inactive),17.8 µM (inactive),17.3 µM (inactive),15.7 µM (inactive),19 µM (inactive),17.9 µM (inactive),16.3 µM (inactive),22.5 µM (inactive),16.4 µM (inactive),17 µM (inactive),20.7 µM (inactive),14.5 µM (inactive),18.2 µM (inactive),21 µM (inactive),21.9 µM (inactive)
Cc1cc(=O)oc2cc(OCc3nc4ccccc4c(=O)n3-c3ccccc3)ccc12,> 100 µM (inactive),> 100 µM (inactive),> 100 µM (inactive),> 100 µM (inactive),> 100 µM (inactive),> 100 µM (inactive),> 100 µM (inactive),> 100 µM (inactive),> 100 µM (inactive),> 100 µM (inactive),> 100 µM (inactive),> 100 µM (inactive),> 100 µM (inactive),> 100 µM (inactive),58.2 µM (inactive),> 100 µM (inactive),> 100 µM (inactive),> 100 µM (inactive),–,–
Cc1ccc([Se](=C(C(=O)c2ccccc2)C(=O)c2ccccc2)c2ccc(C)cc2)cc1,16 µM (inactive),31 µM (inactive),25.5 µM (inactive),–,30.8 µM (inactive),23.4 µM (inactive),24.5 µM (inactive),35.3 µM (inactive),22.1 µM (inactive),20.7 µM (inactive),14.8 µM (inactive),21.3 µM (inactive),19.5 µM (inactive),16.4 µM (inactive),22.3 µM (inactive),20.2 µM (inactive),18.7 µM (inactive),12.8 µM (inactive),12.7 µM (inactive),20.5 µM (inactive)
CC1=C2CC(C)(C)/C=C\C(=O)/C(C)=C\C3=C[C@H](C)C[C@]3(O2)C1=O,0.195 µM (active),0.798 µM (active),4.71 µM (inactive),–,2.4 µM (inactive),2.03 µM (inactive),1.03 µM (active),6.78 µM (inactive),0.201 µM (active),1.05 µM (active),4.67 µM (inactive),0.139 µM (active),0.255 µM (active),1.52 µM (inactive),8.87 µM (inactive),3.46 µM (inactive),0.927 µM (active),1.42 µM (inactive),0.243 µM (active),0.706 µM (active)
Cn1c(N)nc2c(nc(OCc3ccccc3)n2C2OC(CO)C(O)C2O)c1=O (stereo unspecified),71.8 µM (inactive),> 100 µM (inactive),> 100 µM (inactive),–,> 100 µM (inactive),> 100 µM (inactive),> 100 µM (inactive),> 100 µM (inactive),> 100 µM (inactive),> 100 µM (inactive),> 100 µM (inactive),> 100 µM (inactive),> 100 µM (inactive),> 100 µM (inactive),> 100 µM (inactive),> 100 µM (inactive),> 100 µM (inactive),> 100 µM (inactive),> 100 µM (inactive),> 100 µM (inactive)
Nc1nc(Cl)c2ncn(Cc3ccccc3CCl)c2n1,5.19 µM (inactive),4.81 µM (inactive),5.66 µM (inactive),–,18.5 µM (inactive),17.7 µM (inactive),5.69 µM (inactive),4.71 µM (inactive),2.98 µM (inactive),2.21 µM (inactive),20.5 µM (inactive),3.72 µM (inactive),6.65 µM (inactive),2.48 µM (inactive),7.4 µM (inactive),2.64 µM (inactive),3.85 µM (inactive),2.74 µM (inactive),3.34 µM (inactive),6.07 µM (inactive)
